Results published in patent publication US4880824A, “Phenyl and benzoyl substituted imidazo-fused heterocyclic calcium channel blockers” (Ortho Pharmaceutical Corporation, priority 1987, dated 1989).
Where a name gives a salt, the structure may show the parent alone.

Key:
[1] = test system: calcium dependent smooth muscle contraction (trachea); assay: Inhibition of Calcium Dependent Smooth Muscle Contraction (ICDSMC); set-up: species or system dogs; conditions: Canis lupus familiaris, 50 mM KCl
Procedure: Tracheal rings, one cartilage segment wide (5-10 mm), are cut starting from the bronchial end. After cutting the cartilage, the trachealis muscle tissue is suspended in oxygenated Krebs-Henseleit buffer at 37° C. in a 25 mL tissue bath. After a 60 min equilibration period, the tissues are challenged with 10 μM carbachol. After 5 min the tissues are rinsed and allowed to rest 50 min. The tissues are then challenged with 50 mM KCl and after 30 min, the contractions are quantitated. The tissues are then rinsed and reequilibrated for 50 min. Test compounds are then added for 10 min, and the tissue is rechallenged with 50 mM KCl.
The percent inhibition of smooth muscle contraction is calculated from response data before and after drug treatment according to the following equation. [formula]

[2] = target: T1, calcium channel (specifically bound 3H-nitrendipine, heart membranes) (Oryctolagus cuniculus, UniProt P15381); assay: Nitrendipine Binding Assay (NBA); set-up: species or system New Zealand white rabbits; conditions: for IC50: 3H-nitrendipine 0.05-0.50 nM, 90 min at 4° C., pH 7.4
T1 construct: The heart is immediately removed, cleaned and chopped into small pieces; from tissue; host or cells: heart membranes of female New Zealand white rabbits (42,000×g pellet)
T1 sequence (P15381 whole entry, other chains not shown): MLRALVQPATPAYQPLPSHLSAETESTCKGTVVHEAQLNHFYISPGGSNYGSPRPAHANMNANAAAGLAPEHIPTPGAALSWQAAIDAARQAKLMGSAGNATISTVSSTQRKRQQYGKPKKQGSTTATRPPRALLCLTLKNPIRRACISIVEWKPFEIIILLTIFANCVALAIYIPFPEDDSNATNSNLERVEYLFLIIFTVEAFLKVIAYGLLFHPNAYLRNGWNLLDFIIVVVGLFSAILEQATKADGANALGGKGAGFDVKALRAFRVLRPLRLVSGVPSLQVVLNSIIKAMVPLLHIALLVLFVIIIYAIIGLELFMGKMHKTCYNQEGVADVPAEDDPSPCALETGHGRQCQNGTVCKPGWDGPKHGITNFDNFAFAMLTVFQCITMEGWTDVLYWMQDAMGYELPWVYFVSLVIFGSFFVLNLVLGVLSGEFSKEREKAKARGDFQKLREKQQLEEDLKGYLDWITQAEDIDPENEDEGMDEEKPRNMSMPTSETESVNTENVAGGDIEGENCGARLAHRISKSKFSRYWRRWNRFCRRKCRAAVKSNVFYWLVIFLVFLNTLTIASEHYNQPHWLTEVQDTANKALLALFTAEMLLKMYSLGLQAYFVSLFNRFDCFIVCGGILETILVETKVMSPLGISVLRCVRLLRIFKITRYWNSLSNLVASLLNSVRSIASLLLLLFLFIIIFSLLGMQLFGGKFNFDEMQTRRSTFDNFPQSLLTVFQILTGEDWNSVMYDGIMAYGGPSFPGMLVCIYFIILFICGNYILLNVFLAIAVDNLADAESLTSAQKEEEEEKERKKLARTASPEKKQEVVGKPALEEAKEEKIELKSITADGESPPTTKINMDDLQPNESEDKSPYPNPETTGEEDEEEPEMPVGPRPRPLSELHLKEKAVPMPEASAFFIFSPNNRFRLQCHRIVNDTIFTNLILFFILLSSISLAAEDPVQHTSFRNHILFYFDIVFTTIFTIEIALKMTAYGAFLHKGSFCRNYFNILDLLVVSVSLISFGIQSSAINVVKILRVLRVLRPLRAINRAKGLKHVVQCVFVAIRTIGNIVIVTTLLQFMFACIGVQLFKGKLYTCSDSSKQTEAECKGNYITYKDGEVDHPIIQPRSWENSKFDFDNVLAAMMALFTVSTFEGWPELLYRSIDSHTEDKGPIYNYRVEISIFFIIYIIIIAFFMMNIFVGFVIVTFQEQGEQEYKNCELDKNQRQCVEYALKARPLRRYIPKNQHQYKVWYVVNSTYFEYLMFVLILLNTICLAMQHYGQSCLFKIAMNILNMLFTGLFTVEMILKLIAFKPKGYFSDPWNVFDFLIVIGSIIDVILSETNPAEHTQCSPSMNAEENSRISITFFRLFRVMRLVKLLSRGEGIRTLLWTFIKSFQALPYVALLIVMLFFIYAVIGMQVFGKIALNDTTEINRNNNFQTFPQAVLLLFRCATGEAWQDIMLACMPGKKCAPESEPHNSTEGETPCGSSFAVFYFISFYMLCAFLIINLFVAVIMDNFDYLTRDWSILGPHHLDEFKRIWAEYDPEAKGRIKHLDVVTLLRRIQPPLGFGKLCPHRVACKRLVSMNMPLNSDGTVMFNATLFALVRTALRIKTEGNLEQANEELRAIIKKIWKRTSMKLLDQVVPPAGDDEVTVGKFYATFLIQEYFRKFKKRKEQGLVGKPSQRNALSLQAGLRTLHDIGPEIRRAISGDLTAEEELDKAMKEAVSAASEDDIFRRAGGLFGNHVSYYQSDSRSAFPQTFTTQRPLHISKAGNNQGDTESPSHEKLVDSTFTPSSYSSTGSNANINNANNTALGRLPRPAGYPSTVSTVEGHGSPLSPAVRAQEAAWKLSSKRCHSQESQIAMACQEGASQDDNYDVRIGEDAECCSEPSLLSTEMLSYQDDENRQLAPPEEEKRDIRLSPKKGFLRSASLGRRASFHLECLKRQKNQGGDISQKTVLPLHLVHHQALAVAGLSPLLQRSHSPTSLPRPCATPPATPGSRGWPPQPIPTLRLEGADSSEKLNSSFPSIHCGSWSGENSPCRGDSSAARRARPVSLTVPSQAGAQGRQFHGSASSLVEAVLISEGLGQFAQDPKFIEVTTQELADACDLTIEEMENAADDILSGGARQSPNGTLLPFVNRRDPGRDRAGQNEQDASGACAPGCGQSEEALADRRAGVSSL
T1 sequence (P13806 27-960 partner limits assumed, other chains not shown): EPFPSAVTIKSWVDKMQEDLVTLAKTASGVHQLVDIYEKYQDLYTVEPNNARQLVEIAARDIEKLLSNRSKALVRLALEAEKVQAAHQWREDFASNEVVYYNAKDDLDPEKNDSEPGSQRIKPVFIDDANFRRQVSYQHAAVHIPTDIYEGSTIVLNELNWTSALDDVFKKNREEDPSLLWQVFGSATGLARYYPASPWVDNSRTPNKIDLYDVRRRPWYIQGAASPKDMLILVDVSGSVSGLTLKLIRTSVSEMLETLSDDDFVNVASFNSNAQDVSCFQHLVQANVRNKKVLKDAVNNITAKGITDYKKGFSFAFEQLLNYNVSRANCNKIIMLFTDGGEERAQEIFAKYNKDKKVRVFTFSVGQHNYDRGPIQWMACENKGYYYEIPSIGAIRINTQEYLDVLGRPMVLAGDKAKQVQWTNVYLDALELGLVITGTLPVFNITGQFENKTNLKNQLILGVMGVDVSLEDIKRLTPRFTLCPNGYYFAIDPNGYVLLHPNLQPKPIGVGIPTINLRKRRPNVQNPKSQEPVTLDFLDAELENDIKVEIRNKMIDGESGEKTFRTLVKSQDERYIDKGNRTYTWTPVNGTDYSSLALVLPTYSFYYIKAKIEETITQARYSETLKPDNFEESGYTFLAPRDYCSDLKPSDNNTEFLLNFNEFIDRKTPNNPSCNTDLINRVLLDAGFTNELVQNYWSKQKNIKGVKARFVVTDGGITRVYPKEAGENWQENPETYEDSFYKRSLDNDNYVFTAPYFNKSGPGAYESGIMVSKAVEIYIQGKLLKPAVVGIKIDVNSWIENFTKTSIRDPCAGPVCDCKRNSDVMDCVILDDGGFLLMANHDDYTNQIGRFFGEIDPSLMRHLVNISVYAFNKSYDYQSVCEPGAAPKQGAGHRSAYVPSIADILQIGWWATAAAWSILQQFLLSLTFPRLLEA
T1 sequence (P13806 961-1106 partner limits assumed, other chains not shown): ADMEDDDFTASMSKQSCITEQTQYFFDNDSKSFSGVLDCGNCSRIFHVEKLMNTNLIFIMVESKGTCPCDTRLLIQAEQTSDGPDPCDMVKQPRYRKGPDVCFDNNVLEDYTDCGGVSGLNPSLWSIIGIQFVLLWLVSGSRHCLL
Procedure: The NBA is performed on female, New Zealand white rabbits (1-2 kg) which are sacrificed by cervical dislocation. The heart is immediately removed, cleaned and chopped into small pieces. The tissue is homogenized in 5X volume of 0.05M Hepes buffer, pH 7.4. The homogenate is centrifuged at 4000×g for 10 min; the supernatant is recentrifuged at 42,000×g for 90 min. The resulting membrane pellet is resuspended (0.7 ml/g weight in 0.05M Hepes, pH 7.4 and stored at -70° C. until used. Each tube of the binding assay contains ^3 H-nitrendipine (0.05-0.50nM), buffer, membranes (0.10mL), and test compound in a total volume of 1.0 mL. After 90 min at 4° C., the bound nitrendipine is separated from the unbound by filtration on Whatman GF/C fibers. After rinsing, the filters are dried and counted in a liquid scintillation counter.
Non-specific binding of ^3 H-nitrendipine (that amount bound in the presence of excess unlabelled nitrendipine) is subtracted from the total bound to obtain specifically bound radiolabeled nitrendipine. The amount of specifically bound nitrendipine in the presence of a test compound is compared to that amount bound in the absence of a compound. A percent displacement (or inhibition) can then be obtained.

Compound | inhibition at 1 µM [1] [%] | inhibition at 2 µM [1] [%] | inhibition at 10 µM [1] [%] | inhibition at 20 µM [1] [%] | IC50 [2] [nM] | other results
CCCCN(CCCC)CCCOc1ccc(-c2cn3ccsc3n2)cc1 [Example 2, 6-(4-Dibutylaminopropoxyphenyl)imidazo[2,1-b]thiazole dihydrochloride] | 8 | 24 | 55 | 81 | 1500 | 
CCCCN(CCCC)CCCOc1ccc(-c2cn3c(n2)sc2ccccc23)cc1 [Example 4, 6-(4-Dibutylaminopropoxyphenyl)imidazo[2,1-b]benzothiadihydrochloride] |  |  |  | 38 | 3100 | 
CCCCN(CCCC)CCCOc1ccc(C(=O)c2cnc3nc(C)ccn23)cc1 [Example 9b, 3-(4-Dibutylaminopropoxybenzoyl)-7-methylimidazo[1,2-a]-pyrimidine hydrochloride] |  |  | 19 |  |  | 
CCCCN(CCCC)CCCOc1ccc(-c2cn3cccnc3n2)cc1 [Example 6, 2-(4-Dibutylaminopropoxyphenyl)imidazo[1,2-a]pyrimidine dihydrochloride] |  | 26 | 46 | 65 |  | inhibition at 68 µM ([2]; @ 68 μM, read-out: NBA percent displacement (or inhibition)): 43%
CCCCN(CCCC)CCCOc1ccc(-c2cn3ccc(C)nc3n2)cc1 [Example 7, 2-(4-Dibutylaminopropoxyphenyl)-7-methylimidazo-[1,2-a]pyrimidine trihydrochloride] |  | 25 | 39 |  |  | 
CCCCN(CCCC)CCCOc1ccc(C(=O)c2cnc3ncccn23)cc1 [Example 8c, 3-(4-Dibutylaminopropoxybenzoyl)imidazo[1,2-a]pyrimidine dihydrochloride] | 70 |  |  |  | 7000 | inhibition at 0.1 µM ([1]; @ .1 μM): 37%; inhibition at 0.5 µM ([1]; @ .5 μM): 60%
CCCCN(CCCC)CCCOc1ccc(-c2cn3nccnc3n2)cc1 [Example 5, 2-(4-Dibutylaminopropoxyphenyl)imidazo[1,2-b]-1,2,4-triazine hydrochloride] |  |  | 45 | 85 | 600 | 
CCCCN(CCCC)CCCOc1ccc(-c2cn3nc(C)sc3n2)cc1 [Example 1d, 6-(4-Dibutylaminopropoxyphenyl)-2-methylimidazo[2,1-b]-1,3,4-thiadiazoledihydrochloride] | 50 |  | 82 |  | 1100 | inhibition at 5 µM ([1]; @ 5 μM): 27%
CCCCN(CCCC)CCCOc1ccc(-c2nc3sccn3c2C)cc1 [Example 3, 6-(4-Dibutylaminopropoxyphenyl)-5-methylimidazo[2,1-b]thiazole hydrochloride] | 11 |  | 75 |  | 1300 | 
